# Experimental data as given in ChEMBL document CHEMBL1201861, “Genomics of Drug Sensitity in Cancer screening data, Wellcome Trust Sanger Institute”.
# Columns and labels:
# COLO-741 = test: cells; assay type: functional, cell-based; conditions: Homo sapiens
# Description: SANGER: Inhibition of human COLO-741 cell growth in a cell viability assay.
# DMS-53 = test: cells; assay type: functional, cell-based; conditions: Homo sapiens;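 further: cell viability assay measuring growth inhibition of human DMS-53 cells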
# Description: SANGER: Inhibition of human DMS-53 cell growth in a cell viability assay.
# EW-7 = test: SANGER: Inhibition of human EW-7 cell growth in a cell viability assay.; assay type: functional, cell-based
# GMS-10 = test: cells; assay type: functional, cell-based; conditions: Homo sapiens;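 further: growth inhibition of GMS-10 cells, read out as cell viability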
# Description: SANGER: Inhibition of human GMS-10 cell growth in a cell viability assay.
# HCC1143 = test: cells; assay type: functional, cell-based; conditions: Homo sapiens;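 further: growth inhibition of human HCC1143 cells, read out with a cell viability assay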
# Description: SANGER: Inhibition of human HCC1143 cell growth in a cell viability assay.
# HCC1419 = test: cells; assay type: functional, cell-based; conditions: Homo sapiens;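 further: growth inhibition of human HCC1419 cells, read out as cell viability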
# Description: SANGER: Inhibition of human HCC1419 cell growth in a cell viability assay.
# HCC1569 = test: cells; assay type: functional, cell-based; conditions: Homo sapiens;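 further: growth inhibition of human HCC1569 cells, read out with a cell viability assay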
# Description: SANGER: Inhibition of human HCC1569 cell growth in a cell viability assay.
# HSC-2 = test: cells; assay type: functional, cell-based; conditions: Homo sapiens;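 further: growth inhibition of human HSC-2 cells, read out by a cell viability assay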
# Description: SANGER: Inhibition of human HSC-2 cell growth in a cell viability assay.
# HT-3 = test: cells; assay type: functional, cell-based; conditions: Homo sapiens;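 further: growth inhibition measured with a cell viability readout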
# Description: SANGER: Inhibition of human HT-3 cell growth in a cell viability assay.
# IGROV-1 = test: cells; assay type: functional, cell-based; conditions: Homo sapiens;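 further: reduction of IGROV-1 cell growth, read out with a viability assay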
# Description: SANGER: Inhibition of human IGROV-1 cell growth in a cell viability assay.
# IMR-5 = test: cells; assay type: functional, cell-based, Homo sapiens; conditions: Homo sapiens, IMR-5; read-out: IC50;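 further: growth inhibition of human IMR-5 cells, read out with a cell viability assay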
# Description: SANGER: Inhibition of human IMR-5 cell growth in a cell viability assay.
# KP-4 = test: cells; assay type: functional, cell-based; conditions: Homo sapiens;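 further: human KP-4 cells, with growth inhibition read out through a cell viability assay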
# Description: SANGER: Inhibition of human KP-4 cell growth in a cell viability assay.
# MDA-MB-175-VII = test: cells; assay type: functional, cell-based; conditions: Homo sapiens
# MDA-MB-468 = test: cells; assay type: functional, cell-based; conditions: Homo sapiens
# Description: SANGER: Inhibition of human MDA-MB-468 cell growth in a cell viability assay.
# MFE-296 = test: SANGER: Inhibition of human MFE-296 cell growth in a cell viability assay.; assay type: functional, cell-based
# MKN-1 = test: cells; assay type: functional, cell-based; conditions: Homo sapiens;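 further: growth inhibition of human MKN1 cells, read out by a cell viability measurement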
# Description: SANGER: Inhibition of human MKN1 cell growth in a cell viability assay.
# NCI-H1651 = test: cells; assay type: functional, cell-based; conditions: Homo sapiens;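 further: Read-out is a cell viability assay, with IC50 expressing inhibition of NCI-H1651 cell growth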
# Description: SANGER: Inhibition of human NCI-H1651 cell growth in a cell viability assay.
# NCI-H1694 = test: cells; assay type: functional, cell-based, Homo sapiens; conditions: Homo sapiens, NCI-H1694;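 further: cell viability assay measuring inhibition of growth in human NCI-H1694 cells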
# Description: SANGER: Inhibition of human NCI-H1694 cell growth in a cell viability assay.
# NCI-H1734 = test: cells; assay type: functional, cell-based; conditions: Homo sapiens;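 further: growth inhibition of human NCI-H1734 cells, read out with a cell viability assay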
# Description: SANGER: Inhibition of human NCI-H1734 cell growth in a cell viability assay.
# NCI-H1792 = test: cells; assay type: functional, cell-based; conditions: Homo sapiens;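 further: growth inhibition of human NCI-H1792 cells, read out as cell viability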
# Description: SANGER: Inhibition of human NCI-H1792 cell growth in a cell viability assay.
# NCI-H2227 = test: cells; assay type: functional, cell-based; conditions: Homo sapiens;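 further: growth inhibition of the human cell line, read out with a cell viability assay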
# Description: SANGER: Inhibition of human NCI-H2227 cell growth in a cell viability assay.
# NCI-H2347 = test: cells; assay type: functional, cell-based; conditions: Homo sapiens;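 further: growth inhibition of the cell line, read out with a cell viability assay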
# Description: SANGER: Inhibition of human NCI-H2347 cell growth in a cell viability assay.
# NCI-H2452 = test: cells; assay type: functional, cell-based; conditions: Homo sapiens;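 further: growth inhibition of NCI-H2452 cells, read out with a cell viability assay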
# Description: SANGER: Inhibition of human NCI-H2452 cell growth in a cell viability assay.
# NCI-H28 = test: cells; assay type: functional, cell-based; conditions: Homo sapiens;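 further: growth inhibition of human NCI-H28 cells, read out as cell viability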
# Description: SANGER: Inhibition of human NCI-H28 cell growth in a cell viability assay.
# NCI-H650 = test: cells; assay type: functional, cell-based; conditions: Homo sapiens;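 further: growth inhibition of NCI-H650 cells, read out by a viability assay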
# Description: SANGER: Inhibition of human NCI-H650 cell growth in a cell viability assay.
# NCI-H716 = test: cells; assay type: functional, cell-based, Homo sapiens; conditions: Homo sapiens, NCI-H716;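 further: growth inhibition of human NCI-H716 cells, measured by a cell viability assay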
# Description: SANGER: Inhibition of human NCI-H716 cell growth in a cell viability assay.
# NCI-H810 = test: cells; assay type: functional, cell-based; conditions: Homo sapiens;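 further: IC50 reflects inhibition of cancer cell line growth, read out with a cell viability assay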
# Description: SANGER: Inhibition of human NCI-H810 cell growth in a cell viability assay.
# NCI-H889 = test: cells; assay type: functional, cell-based, Homo sapiens; conditions: Homo sapiens, NCI-H889;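 further: cell growth inhibition of the cell line, read out with a viability assay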
# Description: SANGER: Inhibition of human NCI-H889 cell growth in a cell viability assay.
# OVCAR-3 = test: cells; assay type: functional, cell-based; conditions: Homo sapiens;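 further: growth inhibition of human OVCAR-3 cells, determined by a cell viability assay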
# Description: SANGER: Inhibition of human OVCAR-3 cell growth in a cell viability assay.
# PC-3 = test: cells; assay type: functional, cell-based; conditions: Homo sapiens;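 further: cell viability assay measuring growth inhibition of PC-3 cells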
# Description: SANGER: Inhibition of human PC-3 cell growth in a cell viability assay.
# RO82-W-1 = test: cells; assay type: functional, cell-based; conditions: Homo sapiens;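 further: growth inhibition of human RO82-W-1 cells, measured with a cell viability assay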
# Description: SANGER: Inhibition of human RO82-W-1 cell growth in a cell viability assay.
# RT-112 = test: cells; assay type: functional, cell-based; conditions: Homo sapiens
# Description: SANGER: Inhibition of human RT-112 cell growth in a cell viability assay.
# RT-4 = test: SANGER: Inhibition of human RT4 cell growth in a cell viability assay.; assay type: functional, cell-based
# SCC-4 = test: cells; assay type: functional, cell-based; conditions: Homo sapiens;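 further: growth inhibition of human SCC-4 cells, read out as cell viability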
# Description: SANGER: Inhibition of human SCC-4 cell growth in a cell viability assay.
# SK-CO-1 = test: cells; assay type: functional, cell-based; conditions: Homo sapiens;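 further: growth inhibition of SK-CO-1 cells, determined by a viability readout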
# Description: SANGER: Inhibition of human SK-CO-1 cell growth in a cell viability assay.
# SK-MEL3 = test: cells; assay type: functional, cell-based, SK-MEL-3; conditions: Homo sapiens;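 further: growth inhibition of human SK-MEL-3 cells, read out with a cell viability assay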
# Description: SANGER: Inhibition of human SK-MEL-3 cell growth in a cell viability assay.
# SNU-449 = test: cells; assay type: functional, cell-based; conditions: Homo sapiens
# Description: SANGER: Inhibition of human SNU-449 cell growth in a cell viability assay.
# T-24 = test: cells; assay type: functional, cell-based; conditions: Homo sapiens;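 further: growth inhibition of T-24 cells, read out with a cell viability assay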
# Description: SANGER: Inhibition of human T-24 cell growth in a cell viability assay.
# T84 = test: cells; assay type: functional, cell-based; conditions: Homo sapiens;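 further: growth inhibition measured with a cell viability readout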
# Description: SANGER: Inhibition of human T84 cell growth in a cell viability assay.
# 647-V = test: cells; assay type: functional, cell-based; conditions: Homo sapiens;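 further: growth inhibition of 647-V cells, read out with a cell viability assay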
# Description: SANGER: Inhibition of human 647-V cell growth in a cell viability assay.
# A 172 = test: cells; assay type: functional, cell-based; conditions: Homo sapiens;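 further: growth inhibition of A172 cells, measured with a cell viability readout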
# Description: SANGER: Inhibition of human A172 cell growth in a cell viability assay.
# A2058 = test: cells; assay type: functional, cell-based; conditions: Homo sapiens;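 further: reduction of A2058 cell growth, read out with a viability assay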
# Description: SANGER: Inhibition of human A2058 cell growth in a cell viability assay.
# ACHN = test: cells; assay type: functional, cell-based; conditions: Homo sapiens;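 further: cell viability read-out used to gauge how strongly growth of human ACHN cells is suppressed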
# Description: SANGER: Inhibition of human ACHN cell growth in a cell viability assay.
# BPH-1 = test: cells; assay type: functional, cell-based; conditions: Homo sapiens;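 further: cell viability assay measuring growth inhibition of human BPH-1 cells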
# Description: SANGER: Inhibition of human BPH-1 cell growth in a cell viability assay.
# CAL-51 = test: cells; assay type: functional, cell-based; conditions: Homo sapiens;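 further: human CAL-51 cell line, growth inhibition read out via a cell viability assay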
# Description: SANGER: Inhibition of human CAL-51 cell growth in a cell viability assay.
# CAL-85-1 = test: cells; assay type: functional, cell-based; conditions: Homo sapiens;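 further: growth inhibition of human CAL-85-1 cells, read out with a cell viability assay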
# Description: SANGER: Inhibition of human CAL-85-1 cell growth in a cell viability assay.
# U-118-MG = test: cells; assay type: functional, cell-based; conditions: Homo sapiens
# Description: SANGER: Inhibition of human U-118-MG cell growth in a cell viability assay.
# COLO 205 = test: cells; assay type: functional, cell-based; conditions: Homo sapiens
# Description: SANGER: Inhibition of human COLO-205 cell growth in a cell viability assay.
smiles,measurement,setting,value
O=S(=O)(O)c1ccc2cc(/N=N/c3cc(S(=O)(=O)O)c4cccnc4c3O)ccc2c1,IC50,COLO-741,> 16000 nM
same,IC50,DMS-53,> 16000 nM
same,IC50,EW-7,> 16000 nM
same,IC50,GMS-10,> 16000 nM
same,IC50,HCC1143,> 16000 nM
same,IC50,HCC1419,> 16000 nM
same,IC50,HCC1569,> 16000 nM
same,IC50,HSC-2,> 16000 nM
same,IC50,HT-3,> 16000 nM
same,IC50,IGROV-1,> 16000 nM
same,IC50,IMR-5,> 16000 nM
same,IC50,KP-4,> 16000 nM
same,IC50,MDA-MB-175-VII,> 16000 nM
same,IC50,MDA-MB-468,> 16000 nM
same,IC50,MFE-296,> 16000 nM
same,IC50,MKN-1,> 16000 nM
same,IC50,NCI-H1651,> 16000 nM
same,IC50,NCI-H1694,> 16000 nM
same,IC50,NCI-H1734,> 16000 nM
same,IC50,NCI-H1792,> 16000 nM
same,IC50,NCI-H2227,> 16000 nM
same,IC50,NCI-H2347,> 16000 nM
same,IC50,NCI-H2452,> 16000 nM
same,IC50,NCI-H28,> 16000 nM
same,IC50,NCI-H650,> 16000 nM
same,IC50,NCI-H716,> 16000 nM
same,IC50,NCI-H810,> 16000 nM
same,IC50,NCI-H889,> 16000 nM
same,IC50,OVCAR-3,> 16000 nM
same,IC50,PC-3,> 16000 nM
same,IC50,RO82-W-1,> 16000 nM
same,IC50,RT-112,> 16000 nM
same,IC50,RT-4,> 16000 nM
same,IC50,SCC-4,> 16000 nM
same,IC50,SK-CO-1,> 16000 nM
same,IC50,SK-MEL3,> 16000 nM
same,IC50,SNU-449,> 16000 nM
same,IC50,T-24,> 16000 nM
same,IC50,T84,> 16000 nM
same,IC50,647-V,> 16000 nM
same,IC50,A 172,> 16000 nM
same,IC50,A2058,> 16000 nM
same,IC50,ACHN,> 16000 nM
same,IC50,BPH-1,> 16000 nM
same,IC50,CAL-51,9360 nM
same,IC50,CAL-85-1,> 16000 nM
same,IC50,U-118-MG,> 16000 nM
same,IC50,COLO 205,> 16000 nM
CCCCCCCCCCCC1=C(O)C(=O)C=C(O)C1=O [EMBELIN],IC50,COLO-741,7420 nM
same,IC50,DMS-53,15500 nM
same,IC50,EW-7,23200 nM
same,IC50,GMS-10,23000 nM
same,IC50,HCC1143,7140 nM
same,IC50,HCC1419,> 32000 nM
same,IC50,HCC1569,10300 nM
same,IC50,HSC-2,7400 nM
same,IC50,HT-3,27600 nM
same,IC50,IGROV-1,5640 nM
same,IC50,IMR-5,> 32000 nM
same,IC50,KP-4,> 32000 nM
same,IC50,MDA-MB-175-VII,> 32000 nM
same,IC50,MDA-MB-468,> 32000 nM
same,IC50,MFE-296,14400 nM
same,IC50,MKN-1,12300 nM
same,IC50,NCI-H1651,5980 nM
same,IC50,NCI-H1694,> 32000 nM
same,IC50,NCI-H1734,15000 nM
same,IC50,NCI-H1792,23100 nM
same,IC50,NCI-H2227,> 32000 nM
same,IC50,NCI-H2347,7480 nM
same,IC50,NCI-H2452,> 32000 nM
same,IC50,NCI-H28,26000 nM
same,IC50,NCI-H650,16400 nM
same,IC50,NCI-H716,> 32000 nM
same,IC50,NCI-H810,7730 nM
same,IC50,NCI-H889,> 32000 nM
same,IC50,OVCAR-3,23600 nM
same,IC50,PC-3,14800 nM
same,IC50,RO82-W-1,> 32000 nM
same,IC50,RT-112,12600 nM
same,IC50,RT-4,> 32000 nM
same,IC50,SCC-4,17400 nM
same,IC50,SK-CO-1,13600 nM
same,IC50,SK-MEL3,16200 nM
same,IC50,SNU-449,16500 nM
same,IC50,T-24,> 32000 nM
same,IC50,T84,9870 nM
same,IC50,647-V,24500 nM
same,IC50,A 172,8780 nM
same,IC50,A2058,2320 nM
same,IC50,ACHN,> 32000 nM
same,IC50,BPH-1,> 32000 nM
same,IC50,CAL-51,5370 nM
same,IC50,CAL-85-1,7810 nM
same,IC50,U-118-MG,29100 nM
same,IC50,COLO 205,3870 nM
C/C(=C\c1csc(C)n1)[C@@H]1C[C@@H]2O[C@]2(C)CCC[C@H](C)[C@H](O)[C@@H](C)C(=O)C(C)(C)[C@@H](O)CC(=O)O1 [PATUPILONE],IC50,COLO-741,2.72 nM
same,IC50,DMS-53,> 32 nM
same,IC50,EW-7,2.25 nM
same,IC50,GMS-10,> 32 nM
same,IC50,HCC1143,> 32 nM
same,IC50,HCC1419,> 32 nM
same,IC50,HCC1569,12.8 nM
same,IC50,HSC-2,0.363 nM
same,IC50,HT-3,15 nM
same,IC50,IGROV-1,0.156 nM
same,IC50,IMR-5,9.51 nM
same,IC50,KP-4,0.682 nM
same,IC50,MDA-MB-175-VII,> 32 nM
same,IC50,MDA-MB-468,1.75 nM
same,IC50,MFE-296,2.68 nM
same,IC50,MKN-1,2.65 nM
same,IC50,NCI-H1651,3.71 nM
same,IC50,NCI-H1694,> 32 nM
same,IC50,NCI-H1734,16 nM
same,IC50,NCI-H1792,8.28 nM
same,IC50,NCI-H2227,> 32 nM
same,IC50,NCI-H2347,> 32 nM
same,IC50,NCI-H2452,> 32 nM
same,IC50,NCI-H28,22 nM
same,IC50,NCI-H650,0.17 nM
same,IC50,NCI-H716,> 32 nM
same,IC50,NCI-H810,0.322 nM
same,IC50,NCI-H889,> 32 nM
same,IC50,OVCAR-3,4.13 nM
same,IC50,PC-3,23.4 nM
same,IC50,RO82-W-1,> 32 nM
same,IC50,RT-112,0.614 nM
same,IC50,RT-4,> 32 nM
same,IC50,SCC-4,0.877 nM
same,IC50,SK-CO-1,9.13 nM
same,IC50,SK-MEL3,20.9 nM
same,IC50,SNU-449,1.91 nM
same,IC50,T-24,20.6 nM
same,IC50,T84,0.24 nM
same,IC50,647-V,2.42 nM
same,IC50,A 172,1.92 nM
same,IC50,A2058,0.601 nM
same,IC50,ACHN,0.749 nM
same,IC50,BPH-1,0.521 nM
same,IC50,CAL-51,1.66 nM
same,IC50,CAL-85-1,0.662 nM
same,IC50,U-118-MG,18 nM
same,IC50,COLO 205,0.802 nM
Cc1ccc(C(=O)Nc2ccc(CN3CCN(C)CC3)c(C(F)(F)F)c2)cc1C#Cc1cnc2cccnn12 [PONATINIB],IC50,COLO-741,> 512 nM
same,IC50,DMS-53,> 512 nM
same,IC50,EW-7,> 512 nM
same,IC50,GMS-10,> 512 nM
same,IC50,HCC1143,> 512 nM
same,IC50,HCC1419,> 512 nM
same,IC50,HCC1569,> 512 nM
same,IC50,HSC-2,> 512 nM
same,IC50,HT-3,> 512 nM
same,IC50,IGROV-1,> 512 nM
same,IC50,IMR-5,> 512 nM
same,IC50,KP-4,> 512 nM
same,IC50,MDA-MB-175-VII,> 512 nM
same,IC50,MDA-MB-468,> 512 nM
same,IC50,MFE-296,118 nM
same,IC50,MKN-1,> 512 nM
same,IC50,NCI-H1651,> 512 nM
same,IC50,NCI-H1694,> 512 nM
same,IC50,NCI-H1734,> 512 nM
same,IC50,NCI-H1792,> 512 nM
same,IC50,NCI-H2227,> 512 nM
same,IC50,NCI-H2347,> 512 nM
same,IC50,NCI-H2452,> 512 nM
same,IC50,NCI-H28,> 512 nM
same,IC50,NCI-H650,> 512 nM
same,IC50,NCI-H716,163 nM
same,IC50,NCI-H810,> 512 nM
same,IC50,NCI-H889,> 512 nM
same,IC50,OVCAR-3,> 512 nM
same,IC50,PC-3,> 512 nM
same,IC50,RO82-W-1,> 512 nM
same,IC50,RT-112,238 nM
same,IC50,RT-4,451 nM
same,IC50,SCC-4,> 512 nM
same,IC50,SK-CO-1,> 512 nM
same,IC50,SK-MEL3,> 512 nM
same,IC50,SNU-449,300 nM
same,IC50,T-24,> 512 nM
same,IC50,T84,> 512 nM
same,IC50,647-V,> 512 nM
same,IC50,A 172,296 nM
same,IC50,A2058,> 512 nM
same,IC50,ACHN,293 nM
same,IC50,BPH-1,> 512 nM
same,IC50,CAL-51,> 512 nM
same,IC50,CAL-85-1,179 nM
same,IC50,U-118-MG,> 512 nM
same,IC50,COLO 205,> 512 nM
